In data set [1] the test system is Influenza A/PR/8/34 (H1N1). Put plainly: MDCK cell-based plaque reduction assay, influenza A/PR/8/34. The following applies: Influenza A virus, H1N1|PR/8, MDCK. In general terms: Plaques are areas of infected cells; plaque reduction assays count them against a control.
Data set [2] deals with Influenza A1/Jingfang 86-1(H1N1). Put plainly: MDCK cell-based plaque reduction assay, influenza A1/Jingfang 86-1. Particulars: Influenza A virus.
In data set [3] the test system is Influenza A3/Lufang 93-1(H3N2). As to the kind of experiment: MDCK cell-based plaque reduction assay, influenza A3/Lufang 93-1. The following applies: Influenza A virus.
A further data set concerns Influenza B/Shenzhen/747. Put plainly: MDCK cell-based plaque reduction assay, influenza B/Shenzhen/747. Particulars: Influenza B virus.
The test system of data set [4] is influenza A/udorn/72 (H3N2). It is filed as cell-based, influenza A virus.
In data set [5] the test system is influenza virus A/Udorn/72 strain (H3N2). Put plainly: MDCK cell-based plaque reduction assay, influenza A/Udorn/72. The following applies: for anti-influenza inhibitory activity (result in words) / fold improvement of inhibitory activity over HTS hit P114F5 / inhibition to influenza virus at 100 μM: A/Udorn/72 (H3N2); for anti-influenza inhibitory activity (result in words): authors' description of the EC50 data; for fold improvement of inhibitory activity over HTS hit P114F5: compared to P114F5; for inhibition to influenza virus at 100 μM: at a concentration of 100 μM; for EC50: influenza virus A/Udorn/72 strain (H3N2), 50% reduction of plaques in MDCK cells.

Data set [6] has as its system Madin-Darby canine kidney (MDCK) cells. Put plainly: MTT cytotoxicity assay in MDCK cells. The class given is cell-based. Particulars: 24 h, mean ± SD of triplicates. (In general: Formazan colour is commonly taken as a measure of viable cells.)
For data set [7], the system named is human embryonic kidney cells (HEK293 cells). Put plainly: MTT cytotoxicity assay in HEK293 cells. The following applies: HEK 293 cells, 24 h, mean ± SD of triplicates. It is filed as cell-based.
Data set [8] relates to human epithelial carcinoma cell line (HeLa cells). Put plainly: MTT cytotoxicity assay in HeLa cells. It is filed as cell-based. The following applies: 24 h, mean ± SD of triplicates.
The subject of data set [9] is MDCK cells, HEK293 cells and HeLa cells. As to the kind of experiment: MTT cytotoxicity, three cell lines. The class given is cell-based.

Molecules are shown by their SMILES. Entries after “also recorded” stand apart in the source; their conditions may differ.

One may read the EC50 as the midpoint of the concentration-response curve. Consider `CCOC(=O)N1CCC(Sc2ccnc3ccccc23)CC1` [Compound P114F5, ethyl 4-(quinolin-4-ylthio)piperidine-1-carboxylate], for which the EC50 in data set [1] turned out to be 8.78 µM; in [2], 9.05 µM; in data set [3], 11.7 µM; in the data set with Influenza B/Shenzhen/747, 10.9 µM. Besides, the “time-of-addition effect” value in data set [4] is on record as “most effective as an inhibitor of influenza virus; also recorded: no significant anti-influenza activities were observed”.
In the case of `CCOC(=O)N1CCC(Sc2ccc(C)cc2)CC1` [Compound 1d, Ethyl 4-(p-tolylthio)piperidine-1-carboxylate], in data set [5], the “anti-influenza inhibitory activity (result in words)” value (shortened to “anti-influenza inhibitory activity”) is listed as “moderate inhibitory activities”.
For `CCOC(=O)N1CCC(Sc2cccc3ccccc23)CC1` [Compound 1f, Ethyl 4-(naphthalen-1-ylthio)piperidine-1-carboxylate], the “anti-influenza inhibitory activity” value in data set [5] was “moderate inhibitory activities”.
In the case of `CCOC(=O)N1CCC(Oc2ccnc3ccccc23)CC1` [Compound 6a, Ethyl 4-(quinolin-4-yloxy)piperidine-1-carboxylate], in data set [5], the “anti-influenza inhibitory activity” value is listed as “good inhibitory activity” and the “fold improvement of inhibitory activity over HTS hit P114F5” value was 6 fold.
For `CCOC(=O)N1CCC(Sc2ccncc2)CC1` [Compound 1c, Ethyl 4-(pyridin-4-ylthio)piperidine-1-carboxylate], in data set [5], the “inhibition to influenza virus at 100 μM” value was “did not show any inhibition”.
In the case of `c1ccc2c(OC3CCOCC3)ccnc2c1` [Compound 11j, 4-((Tetrahydro-2H-pyran-4-yl)oxy)quinolone], in data set [5], the EC50 is more than 100 µM.
`CC(C)(C)OC(=O)N[C@@H](Cc1ccccc1)C(=O)N1CCC(Sc2ccnc3ccccc23)CC1` [Compound 12a, (S)-tert-Bbutyl (1-oxo-3-phenyl-1-(4-(quinolin-4-ylthio)piperidin-1-yl)propan-2-yl)carbamate] came in with an EC50 in data set [5] of 15.5 µM.
`CCOC(=O)N1CCC(Sc2ccc(OC)cc2)CC1` [Compound 1e, Ethyl 4-((4-methoxyphenyl)thio)piperidine-1-carboxylate]: the “anti-influenza inhibitory activity” value in data set [5] is listed as “moderate inhibitory activities”.
For the compound `CCOC(=O)N1CCC(Sc2cc(Cl)nc3ccccc23)CC1` [Compound 1b, Ethyl 4-((2-chloroquinolin-4-yl)thio)piperidine-1-carboxylate], the “anti-influenza inhibitory activity” value in [5] is listed as “moderate inhibitory activities”.
`c1ccc2c(OC3CCNCC3)ccnc2c1` [Compound 11h, 4-(Piperidin-4-yloxy)quinolone]: in data set [5], the “anti-influenza inhibitory activity” value was “significantly reduced the activity” and the concentration for a half-maximal effect (EC50) was more than 100 µM.
For `CC(C)(C)OC(=O)N1CCC(Oc2ccnc3ccccc23)CC1` [Compound 11e, tert-Butyl 4-(quinolin-4-yloxy)piperidine-1-carboxylate], in [5], the “fold improvement of inhibitory activity over HTS hit P114F5” value came to 100 fold. Also, the concentration giving a half-maximal response (EC50) amounted to 0.07 µM in data set [1], 0.1 µM in [2], 0.06 µM in data set [3] and 0.05 µM in the data set on Influenza B/Shenzhen/747. Besides, the “MDL50 (μM) mean ± SD” value in data set [6] was 10061.92 ± 235.86 µM; in [7], 8101.97 ± 473.16 µM; in data set [8], 8850.21 ± 406.99 µM. Further, in data set [9] (any of the cell lines, up to a concentration of millimolar (mM) range, MTT), the “cytotoxicity (result in words)” value was “did not exhibit cytotoxicity; also recorded: did not observe cytotoxicity”. Further, in [9] (based on cytotoxicity measured by MTT assays of three cell lines), the “selectivity index value (SI = MLD50/EC50)” value was “over 160,000”.
As to `CCOC(=O)N1CCC(Nc2ccnc3ccccc23)CC1` [Compound 6b, Ethyl 4-(quinolin-4-ylamino)piperidine-1-carboxylate], the “anti-influenza inhibitory activity” value in data set [5] was “moderate inhibitory activity”.
The compound `CC(C)(C)OC(=O)N[C@@H](CC(N)=O)C(=O)N1CCC(Sc2ccnc3ccccc23)CC1` [Compound 12b, (S)-tert-Butyl (4-amino-1,4-dioxo-1-(4-(quinolin-4-ylthio)piperi-din-1-yl)butan-2-yl)carbamate] came in with an EC50 in [5] of more than 100 µM.
With `CCOC(=O)N1CCC(Sc2cc(-c3ccccc3)nc3ccccc23)CC1` [Compound 1a, Ethyl 4-((2-phenylquinolin-4-yl)thio)piperidine-1-carboxylate], the “inhibition to influenza virus at 100 μM” value in [5] is “did not show any inhibition”.

Source of the values: PMC4177008 (Organic & biomolecular chemistry, 2014).
